Results taken from US10844044B2 (Vanderbilt University, priority 2018, dated 2020).

biological target: WDR5 (Homo sapiens (Human), UniProt P61964); assay: TR-FRET binding assay (displacement of 10mer-Thr-FAM probe from WDR5); settings: not given

Ki [nM] | Structure (SMILES)
> 33 | Cn1ccn(Cc2cc(C(=O)N[C@H]3CCc4cc(F)ccc43)cc(-c3cccnc3C(F)(F)F)c2)c1=N [Example 129, (S)—N-(5-Fluoro-2,3-dihydro-1H-inden-1-yl)-3-((2-imino-3-methyl-2,3-dihydro-1H-imidazol-1-yl)methyl)-5-(2-(trifluoromethyl)pyridin-3-yl)benzamide]
> 33 | COc1cc(CNC(=O)c2cc(Cn3ccn(-c4ccccc4)c3=N)cc(-c3ccc(F)cc3C)c2)cc(OC)c1 [Example 133, N-(3,5-Dimethoxybenzyl)-4′-fluoro-5-((2-imino-3-phenyl-2,3-dihydro-1H-imidazol-1-yl)methyl)-2′-methyl-[1,1′-biphenyl]-3-carboxamide]
8.9 | COc1cc(CNC(=O)c2cc(Cn3ccn(C)c3=N)cc(-c3ccc(F)cc3C(N)=O)c2)cc(OC)c1 [Example 152, N3′-(3,5-dimethoxybenzyl)-4-fluoro-5′-((2-imino-3-methyl-2,3-dihydro-1H-imidazol-1-yl)methyl)-[1,1′-biphenyl]-2,3′-dicarboxamide]
23 | COc1cccc(-c2cc(Cn3ccn(C)c3=N)cc(C(=O)NCc3ccc(Cl)c(Cl)c3)c2)n1 [Example 169, N-(3,4-Dichlorobenzyl)-3-((2-imino-3-methyl-2,3-dihydro-1H-imidazol-1-yl)methyl)-5-(6-methoxypyridin-2-yl)benzamide]

same assay, conditions: read-out: Ki for Inhibition of WDR5 by TR-FRET assay

Structure (SMILES) | Ki [nM]
Cc1cc([C@@H](NC(=O)c2cc(Cn3ccn(-c4ccccc4)c3=N)cc(-c3cccnc3C(F)(F)F)c2)C2CC2)ccc1F [Example 137, (S)—N-(Cyclopropyl(4-fluoro-3-methylphenyl)methyl)-3-((2-imino-3-phenyl-2,3-dihydro-1H-imidazol-1-yl)methyl)-5-(2-(trifluoromethyl)pyridin-3-yl)benzamide] | > 33
Cc1cc([C@H](C)NC(=O)c2cc(Cn3ccn(C)c3=N)cc(OC(F)(F)F)c2)ccc1F [Example 170, (S)—N-(1-(4-Fluoro-3-methylphenyl)ethyl)-3-((2-imino-3-methyl-2,3-dihydro-1H-imidazol-1-yl)methyl)-5-(trifluoromethoxy)benzamide] | 0.22

same assay, conditions: read-out: Ki for Inhibition of WDR5 by TR-FRET assay; TR-FRET, 10mer-Thr-FAM probe, WDR5-His tag 2 nM, pH 7.0

Structure (SMILES) | Ki [nM]
C[C@H](NC(=O)c1cc(Cn2ccn(C)c2=N)cc(-c2cccnc2C(F)(F)F)c1)c1ncc(F)cn1 [Example 130, (S)—N-(1-(5-Fluoropyrimidin-2-yl)ethyl)-3-((2-imino-3-methyl-2,3-dihydro-1H-imidazol-1-yl)methyl)-5-(2-(trifluoromethyl)pyridin-3-yl)benzamide] | > 33
COc1cc(CNC(=O)c2cc(Cn3ccn(CC4CC4)c3=N)cc(-c3ccc(F)cc3C)c2)cc(OC)c1 [Example 134, 5-((3-(Cyclopropylmethyl)-2-imino-2,3-dihydro-1H-imidazol-1-yl)methyl)-N-(3,5-dimethoxybenzyl)-4′-fluoro-2′-methyl-[1,1′-biphenyl]-3-carboxamide] | 38
Cc1cc([C@@H](NC(=O)c2cc(Cn3ccn(C)c3=N)cc(-c3ccnc4c3CCC4)c2)C2CC2)ccc1F [Example 136, (S)—N-(Cyclopropyl(4-fluoro-3-methylphenyl)methyl)-3-(6,7-dihydro-5H-cyclopenta[b]pyridin-4-yl)-5-((2-imino-3-methyl-2,3-dihydro-1H-imidazol-1-yl)methyl)benzamide] | < 0.1
Cc1ccnc(C(NC(=O)c2cc(Cn3ccn(C)c3=N)cc(OC(F)(F)F)c2)C2CC2)c1 (stereo not drawn) [Example 145, N-(Cyclopropyl(4-methylpyridin-2-yl)methyl)-3-((2-imino-3-methyl-2,3-dihydro-1H-imidazol-1-yl)methyl)-5-(trifluoromethoxy)benzamide] | 0.95
Cn1ccn(Cc2cc(OC(F)(F)F)cc(C(=O)N[C@@H](CC(=O)O)c3cccc(C(F)(F)F)c3)c2)c1=N [Example 146, (S)-3-(3-((2-Imino-3-methyl-2,3-dihydro-1H-imidazol-1-yl)methyl)-5-(trifluoromethoxy)benzamido)-3-(3-(trifluoromethyl)phenyl)propanoic acid] | 10
Cn1ccn(Cc2cc(C(=O)N[C@@H](CC(=O)O)c3cccc(C(F)(F)F)c3)c(F)c(-c3ccc(F)cc3C(F)(F)F)c2)c1=N [Example 148, (S)-3-(2,4′-Difluoro-5-((2-imino-3-methyl-2,3-dihydro-1H-imidazol-1-yl)methyl)-2′-(trifluoromethyl)-[1,1′-biphenyl]-3-carboxamido)-3-(3-(trifluoromethyl)phenyl)propanoic acid] | 0.29
Cc1ccnc([C@@H](NC(=O)c2cc(Cn3ccn(C)c3=N)cc(OC(F)(F)F)c2)C2CC2)c1 [Example 149, (S)—N-(Cyclopropyl(4-methylpyridin-2-yl)methyl)-3-((2-imino-3-methyl-2,3-dihydro-1H-imidazol-1-yl)methyl)-5-(trifluoromethoxy)benzamide] | 0.56
Cn1ccn(Cc2cc(C(=O)N[C@H](c3ccc(Cl)c(Cl)c3)C3CC3)cc(-c3ccc(F)cc3OC(F)F)c2)c1=N [Example 150, (S)—N-(Cyclopropyl(3,4-dichlorophenyl)methyl)-2′-(difluoromethoxy)-4′-fluoro-5-((2-imino-3-methyl-2,3-dihydro-1H-imidazol-1-yl)methyl)-[1,1′-biphenyl]-3-carboxamide] | 0.13
N=c1n(Cc2cc(C(=O)N[C@H](c3ccc(Cl)c(Cl)c3)C3CC3)cc(-c3ccc(F)cc3OC(F)F)c2)ccn1C1CC1 [Example 151, (S)—N-(Cyclopropyl(3,4-dichlorophenyl)methyl)-5-((3-cyclopropyl-2-imino-2,3-dihydro-1H-imidazol-1-yl)methyl)-2′-(difluoromethoxy)-4′-fluoro-[1,1′-biphenyl]-3-carboxamide] | 0.59
Cn1ccn(Cc2cc(C(=O)N[C@H](c3ccc(Cl)c(Cl)c3)C3CC3)cc(-c3cccnc3C(F)(F)F)c2)c1=N [Example 153, (S)—N-(Cyclopropyl(3,4-dichlorophenyl)methyl)-3-((2-imino-3-methyl-2,3-dihydro-1H-imidazol-1-yl)methyl)-5-(2-(trifluoromethyl)pyridin-3-yl)benzamide] | 0.33
N=c1n(Cc2cc(C(=O)N[C@H](c3ccc(Cl)c(Cl)c3)C3CC3)cc(-c3cccnc3C(F)(F)F)c2)ccn1C1CC1 [Example 155, (S)—N-(Cyclopropyl(3,4-dichlorophenyl)methyl)-3-((3-cyclopropyl-2-imino-2,3-dihydro-1H-imidazol-1-yl)methyl)-5-(2-(trifluoromethyl)pyridin-3-yl)benzamide] | 1.4
Cc1cc([C@@H](NC(=O)c2cc(Cn3ccn(C4CC4)c3=N)cc(-c3cn(CC(C)C)nc3C(F)(F)F)c2)C2CC2)ccc1F [Example 163, (S)—N-(Cyclopropyl(4-fluoro-3-methylphenyl)methyl)-3-((3-cyclopropyl-2-imino-2,3-dihydro-1H-imidazol-1-yl)methyl)-5-(1-isobutyl-3-(trifluoromethyl)-1H-pyrazol-4-yl)benzamide] | 0.68
Cc1cc([C@@H](NC(=O)c2cc(Cn3ccn(C)c3=N)cc(-c3cn(CC(C)C)nc3C(F)(F)F)c2)C2CC2)ccc1F [Example 165, (S)—N-(Cyclopropyl(4-fluoro-3-methylphenyl)methyl)-3-((2-imino-3-methyl-2,3-dihydro-1H-imidazol-1-yl)methyl)-5-(1-isobutyl-3-(trifluoromethyl)-1H-pyrazol-4-yl)benzamide] | 0.14
Cc1cc(F)ccc1-c1cc(Cn2ccn(C)c2=N)cc(C(=O)N[C@@H](c2ccc(F)c(C)n2)C2CC2)c1 [Example 167, (R)—N-(Cyclopropyl(5-fluoro-6-methylpyridin-2-yl)methyl)-4′-fluoro-5-((2-imino-3-methyl-2,3-dihydro-1H-imidazol-1-yl)methyl)-2′-methyl-[1,1′-biphenyl]-3-carboxamide] | 0.21
Cn1ccn(Cc2cc(C(=O)NCc3ccc(Cl)c(Cl)c3)cc(-c3cccc4c3OC(F)(F)O4)c2)c1=N [Example 168, N-(3,4-Dichlorobenzyl)-3-(2,2-difluorobenzo[d][1,3]dioxol-4-yl)-5-((2-imino-3-methyl-2,3-dihydro-1H-imidazol-1-yl)methyl)benzamide] | 27
Cc1cc(F)ccc1-c1cc(Cn2ccn(C)c2=N)cc(C(=O)N[C@H](c2ccc(F)c(C)n2)C2CC2)c1 [Example 173, (S)-1N-(Cyclopropyl(5-fluoro-6-methylpyridin-2-yl)methyl)-4′-fluoro-5-((2-imino-3-methyl-2,3-dihydro-1H-imidazol-1-yl)methyl)-2′-methyl-[1,1′-biphenyl]-3-carboxamide] | 0.89
CCOc1cc(Cn2ccn(C)c2=N)cc(C(=O)N[C@@H](C)c2ccc(F)c(C)c2)c1 [Example 176, (S)-3-Ethoxy-N-(1-(4-fluoro-3-methylphenyl)ethyl)-5-((2-imino-3-methyl-2,3-dihydro-1H-imidazol-1-yl)methyl)benzamide] | 0.5
COc1cc(CNC(=O)c2cc(Cn3ccn(C)c3=N)cc(OCC3CC3)c2)cc(OC)c1 [Example 178, 3-(Cyclopropylmethoxy)-N-(3,5-dimethoxybenzyl)-5-((2-imino-3-methyl-2,3-dihydro-1H-imidazol-1-yl)methyl)benzamide] | 3.3
CCOc1cc(Cn2ccn(C)c2=N)cc(C(=O)N[C@H](c2ccc(F)c(C)c2)C2CC2)c1 [Example 180, (S)—N-(Cyclopropyl(4-fluoro-3-methylphenyl)methyl)-3-methoxy-5-((2-imino-3-methyl-2,3-dihydro-1-imidazol-1-yl)methyl)benzamide] | 0.13
Cc1cc([C@H](C)NC(=O)c2cc(Cn3ccn(C)c3=N)cc(OCC3CC3)c2)ccc1F [Example 181, (S)-3-(Cyclopropylmethoxy)-N-(1-(4-fluoro-3-methylphenyl)ethyl)-5-((2-imino-3-methyl-2,3-dihydro-1H-imidazol-1-yl)methyl)benzamide] | 0.35
Cc1ccnc([C@@H](NC(=O)c2cc(Cn3ccn(C)c3=N)cc(OCC3CC3)c2)C2CC2)c1 [Example 182, (S)—N-(Cyclopropyl(4-methylpyridin-2-yl)methyl)-3-(cyclopropylmethoxy)-5-((2-imino-3-methyl-2,3-dihydro-1H-imidazol-1-yl)methyl)benzamide] | 1
